# Assay results reported in patent US8883841B2, “Oncogenic ras-specific cytotoxic compound and methods of use thereof” (The Board of Regents of the University of Texas System, priority 2005, dated 2014).
# Read-outs that look alike come from different tables or passages of the source.
# Legend:
# [1] = system: H460 cells; assay: cells; details: Homo sapiens
# [2] = system: UACC-62; assay: NCI in-vitro testing, UACC-62 (Melanoma)
# [3] = system: SK-MEL-5; assay: NCI in-vitro testing, SK-MEL-5 (Melanoma)
# [4] = system: SK-MEL-28; assay: NCI in-vitro testing, SK-MEL-28 (Melanoma)
# [5] = system: UO-31; assay: NCI in-vitro testing, UO-31 (Renal Cancer)
# [6] = system: T-47D; assay: NCI in-vitro testing, T-47D (Breast Cancer)
# [7] = system: HCT-116; assay: NCI in-vitro testing, HCT-116 (Colon Cancer)
# [8] = system: COLO 205; assay: NCI in-vitro testing, COLO 205 (Colon Cancer)
# [9] = system: HCC-2998; assay: NCI in-vitro testing, HCC-2998 (Colon Cancer)
# [10] = system: HS 578T; assay: NCI in-vitro testing, HS 578T (Breast Cancer)
# [11] = system: HOP-62; assay: NCI in-vitro testing, HOP-62 (Non-Small Cell Lung Cancer)
# [12] = system: H460 tumors; assay: In vivo antitumor activity, subcutaneous H460 tumors in nude mice
# Method: The inventors have investigated the in vivo antitumor activity of Oncrasin compounds, such as Oncrasin-1 and Oncrasin-27, both are available at relatively larger scale. Subcutaneous tumors were established in 4- to 6-week-old female nude mice (Charles River Laboratories Inc., Wilmington, Mass.) by the inoculation of 1.5×10^6 H460 cells into the dorsal flank of each mouse. After the tumors grew to 5 mm in diameter, mice were treated with intraperitoneal injections of Oncrasin-1 (for 10 days) or Oncrasin-27 (for 3 days, because of limited availability of the compound) at a dose of 100 mg/kg/injection daily (the agents were dissolved in 0.5 mL of solvent containing 10% DMSO, 10% Cremophor EL, and 10% ethanol), or they were given intraperitoneal injections of solvent alone. The tumor volumes were calculated using the formula a×b^2×0.5, where a and b represent the larger and smaller diameters, respectively (Gu et al., 2000; Terashi et al., 2005). Mice were killed when the tumors grew to 1.5 cm in diameter. To evaluate the toxicity of treatment, blood samples were collected from the tail vein before treatment and 2 days after the last treatment, and serum alanine transaminase, aspartate transaminase, and creatinine levels were determined as described elsewhere (Gu et al., 2000; Terashi et al., 2005). Hematopoietic toxicity was monitored by counting red blood cells, white blood cells, and platelets (Gu et al., 2002; Terashi et al., 2005). The lung, heart, liver, intestine, spleen, and kidney were harvested after the mice were killed to test the toxic effects of both compounds on these organs. The histopathologic analysis was performed in the histology laboratory of the Department of Veterinary Medicine and Surgery at M. D. Anderson Cancer Center. […] The mean survivals for mice treated with solvent, Oncrasin-1, and Oncrasin-27 were 24, 32, and 34 days, respectively.
# [13] = system: T29Kt1 cells
smiles,measurement,setting,value
"OCc1cn(Cc2ccc(Cl)cc2)c2ccccc12 [Oncrasin K060, 1H-Indole-3-methanol, 1-[(4-chlorophenyl)methyl]-]",IC50,"[1]; NCI-H460, read-out: IC50 (−LogM), H460, Lung (converted)",0.0158 µM
same,IC50,"[1]; NCI-H460, read-out: IC50 in H460 cells, Table 1",0.0158 µM
same,GI50,"[2]; Homo sapiens, UACC-62",0.0451 µM
same,CC50,"[2]; Homo sapiens, UACC-62, read-out: LC50",11.4 µM
same,GI50,"[2]; Homo sapiens, UACC-62, read-out: Log10 GI50 (converted)",0.0447 µM
same,TGI,[2]; UACC-62,8.97E−7 Molar
same,Percent Growth,"[2]; UACC-62, Log10 Concentration −4.0 Molar",−94%
same,Percent Growth,"[2]; UACC-62, Log10 Concentration −5.0 Molar",−47%
same,Percent Growth,"[2]; UACC-62, Log10 Concentration −6.0 Molar",−2%
same,Percent Growth,"[2]; UACC-62, Log10 Concentration −7.0 Molar",35%
same,Percent Growth,"[2]; UACC-62, Log10 Concentration −8.0 Molar",79%
same,GI50,"[3]; Homo sapiens, SK-MEL-5",4.97 µM
same,CC50,"[3]; Homo sapiens, SK-MEL-5, read-out: LC50",45.5 µM
same,GI50,"[3]; Homo sapiens, SK-MEL-5, read-out: Log10 GI50 (converted)",5.01 µM
same,TGI,[3]; SK-MEL-5,1.95E−5 Molar
same,Percent Growth,"[3]; SK-MEL-5, Log10 Concentration −4.0 Molar",−97%
same,Percent Growth,"[3]; SK-MEL-5, Log10 Concentration −5.0 Molar",40%
same,Percent Growth,"[3]; SK-MEL-5, Log10 Concentration −6.0 Molar",74%
same,Percent Growth,"[3]; SK-MEL-5, Log10 Concentration −7.0 Molar",92%
same,Percent Growth,"[3]; SK-MEL-5, Log10 Concentration −8.0 Molar",95%
same,GI50,"[4]; Homo sapiens, SK-MEL-28",18 µM
same,CC50,"[4]; Homo sapiens, SK-MEL-28, read-out: LC50",> 100 µM
same,GI50,"[4]; Homo sapiens, SK-MEL-28, read-out: Log10 GI50 (converted)",17.8 µM
same,TGI,[4]; SK-MEL-28,4.44E−5 Molar
same,Percent Growth,"[4]; SK-MEL-28, Log10 Concentration −4.0 Molar",−15%
same,Percent Growth,"[4]; SK-MEL-28, Log10 Concentration −5.0 Molar",82%
same,Percent Growth,"[4]; SK-MEL-28, Log10 Concentration −6.0 Molar",93%
same,Percent Growth,"[4]; SK-MEL-28, Log10 Concentration −7.0 Molar",99%
same,Percent Growth,"[4]; SK-MEL-28, Log10 Concentration −8.0 Molar",93%
same,GI50,"[5]; Homo sapiens, UO-31",1.58 µM
same,CC50,"[5]; Homo sapiens, UO-31, read-out: LC50",> 100 µM
same,GI50,"[5]; Homo sapiens, UO-31, read-out: Log10 GI50 (converted)",1.58 µM
same,TGI,[5]; UO-31,1.55E−5 Molar
same,Percent Growth,"[5]; UO-31, Log10 Concentration −4.0 Molar",−42%
same,Percent Growth,"[5]; UO-31, Log10 Concentration −5.0 Molar",10%
same,Percent Growth,"[5]; UO-31, Log10 Concentration −6.0 Molar",60%
same,Percent Growth,"[5]; UO-31, Log10 Concentration −7.0 Molar",80%
same,Percent Growth,"[5]; UO-31, Log10 Concentration −8.0 Molar",90%
same,GI50,"[6]; Homo sapiens, T47D",0.0267 µM
same,CC50,"[6]; Homo sapiens, T47D, read-out: LC50",> 100 µM
same,GI50,"[6]; Homo sapiens, T47D, read-out: Log10 GI50 (converted)",0.0269 µM
same,TGI,[6]; T-47D,4.23E−7 Molar
same,Percent Growth,"[6]; T-47D, Log10 Concentration −4.0 Molar",−14%
same,Percent Growth,"[6]; T-47D, Log10 Concentration −5.0 Molar",−16%
same,Percent Growth,"[6]; T-47D, Log10 Concentration −6.0 Molar",−12%
same,Percent Growth,"[6]; T-47D, Log10 Concentration −7.0 Molar",20%
same,Percent Growth,"[6]; T-47D, Log10 Concentration −8.0 Molar",73%
same,TGI,[7]; HCT-116,1.06E−5 Molar
same,Percent Growth,"[7]; HCT-116, Log10 Concentration −4.0 Molar",−64%
same,Percent Growth,"[7]; HCT-116, Log10 Concentration −5.0 Molar",2%
same,Percent Growth,"[7]; HCT-116, Log10 Concentration −6.0 Molar",10%
same,Percent Growth,"[7]; HCT-116, Log10 Concentration −7.0 Molar",30%
same,Percent Growth,"[7]; HCT-116, Log10 Concentration −8.0 Molar",68%
same,GI50,"[7]; Homo sapiens, HCT-116",0.0204 µM
same,CC50,"[7]; Homo sapiens, HCT-116, read-out: LC50",6.06 µM
same,GI50,"[7]; Homo sapiens, HCT-116, read-out: Log10 GI50 (converted)",0.0295 µM
same,TGI,[8]; COLO 205,1.58E−5 Molar
same,Percent Growth,"[8]; COLO 205, Log10 Concentration −4.0 Molar",−72%
same,Percent Growth,"[8]; COLO 205, Log10 Concentration −5.0 Molar",18%
same,Percent Growth,"[8]; COLO 205, Log10 Concentration −6.0 Molar",61%
same,Percent Growth,"[8]; COLO 205, Log10 Concentration −7.0 Molar",93%
same,Percent Growth,"[8]; COLO 205, Log10 Concentration −8.0 Molar",98%
same,GI50,"[8]; Homo sapiens, COLO 205",1.05 µM
same,CC50,"[8]; Homo sapiens, COLO 205, read-out: LC50",56.9 µM
same,GI50,"[8]; Homo sapiens, COLO 205, read-out: Log10 GI50 (converted)",1.05 µM
same,TGI,[9]; HCC-2998,2.04E−5 Molar
same,Percent Growth,"[9]; HCC-2998, Log10 Concentration −4.0 Molar",−97%
same,Percent Growth,"[9]; HCC-2998, Log10 Concentration −5.0 Molar",43%
same,Percent Growth,"[9]; HCC-2998, Log10 Concentration −6.0 Molar",62%
same,Percent Growth,"[9]; HCC-2998, Log10 Concentration −7.0 Molar",86%
same,Percent Growth,"[9]; HCC-2998, Log10 Concentration −8.0 Molar",95%
same,GI50,"[9]; Homo sapiens, HCC 2998",4.33 µM
same,CC50,"[9]; Homo sapiens, HCC 2998, read-out: LC50",45.2 µM
same,GI50,"[9]; Homo sapiens, HCC 2998, read-out: Log10 GI50 (converted)",4.37 µM
same,TGI,[10],2.75E−5 Molar
same,GI50,"[10]; Homo sapiens, Hs-578T",46.8 µM
same,CC50,"[10]; Homo sapiens, Hs-578T, read-out: LC50",> 100 µM
same,GI50,"[10]; Homo sapiens, Hs-578T, read-out: Log10 GI50 (converted)",4.68 µM
same,TGI,[11]; HOP-62,1.93E−5 Molar
same,Percent Growth,"[11]; HOP-62, Log10 Concentration −4.0 Molar",−37%
same,Percent Growth,"[11]; HOP-62, Log10 Concentration −5.0 Molar",15%
same,Percent Growth,"[11]; HOP-62, Log10 Concentration −6.0 Molar",36%
same,Percent Growth,"[11]; HOP-62, Log10 Concentration −7.0 Molar",07%
same,Percent Growth,"[11]; HOP-62, Log10 Concentration −8.0 Molar",91%
same,GI50,"[11]; Homo sapiens, HOP-62",0.3 µM
same,CC50,"[11]; Homo sapiens, HOP-62, read-out: LC50",> 100 µM
same,GI50,"[11]; Homo sapiens, HOP-62, read-out: Log10 GI50 (converted)",0.363 µM
"O=Cc1cn(Cc2ccc(Cl)cc2)c2ccccc12 [Oncrasin K001, 1H-Indole-3-carboxaldehyde, 1-[(4-chlorophenyl)methyl]-(9CI)]",suppression of growth of tumor volume in comparison with solvent,"[12]; 100 mg/kg/injection daily i.p., Oncrasin-1 10 days, Oncrasin-27 3 days",75.4%
same,mean survival,"[12]; 100 mg/kg/injection daily i.p., solvent 24 days",32 days
same,mean tumor volume vs solvent-treated mice,"[12]; p<0.05, 5 mice per group",differed significantly
same,time course of toxicity in T29Kt1 cells,[13]; 33 μM,time-dependent toxicity
same,concentration that effectively kills T29K cells,[13]; K-ras mutant,10 µM
same,IC50 in T29k cells,"[13]; Table 1, value is the negative log10 of mol/L",5.6
same,IC50,"[13]; read-out: IC50, T29Kt1 cells, dose-dependent cytotoxicity",2.5 µM
same,selectivity for T29Kt1 (T29K) cells in dose-response study,"[13]; vs T29 and T29Ht1, 0.1 μM to 33 μM",highly selective
